Laboratory results as given in ChEMBL document CHEMBL1201862, “PubChem BioAssay data set” (2004).
Activity calls are given as the source filed them.

What was measured:
[1] = blockers of bursicon-stimulated LGR2 cAMP reporter – cell-based, HEK293, CRE-luciferase reporter, cherry pick, set 2, dose response (AID 743343); format: functional;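 further: transfected cells were stimulated with diluted bursicon conditioned medium after compound addition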
[2] = blockade of melanocortin 4 receptor signaling – cell-based, plate reader, cherry pick, counter-screen for LGR2 antagonist project, dose response (AID 743444); format: functional;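 further: transfected HEK 293 cells stimulated with alpha-MSH peptide; potency of inhibitors of the alpha-MSH evoked signal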
[3] = A549 cell cytotoxicity, dose response, cytotoxicity control, plate reader, cherry-pick, antagonist series (AID 743412); format: functional, cell-based
[4] = viability loss in HEK293 cells – cell-based, plate reader, cherry-picked samples, cytotoxicity control, dose response (AID 743446); format: functional
[5] = toxicity toward HepG2 liver cells – cell-based, plate reader, cherry-pick, antagonist series, cytotoxicity control, dose response (AID 743416); format: functional
[6] = target: T1, Sentrin-specific protease 8 (Homo sapiens, UniProt Q96LD8); format: functional
T1 sequence (Q96LD8 whole entry): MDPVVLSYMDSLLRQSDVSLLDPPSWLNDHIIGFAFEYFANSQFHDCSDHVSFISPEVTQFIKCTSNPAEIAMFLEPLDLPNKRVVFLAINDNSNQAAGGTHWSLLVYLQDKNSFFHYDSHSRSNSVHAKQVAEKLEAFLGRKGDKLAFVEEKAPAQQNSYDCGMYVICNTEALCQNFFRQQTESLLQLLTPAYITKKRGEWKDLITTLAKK

Caspase-3 = target: T2, Caspase-3 (Homo sapiens, UniProt P42574); experiment: Dose-response confirmation of uHTS inhibitor hits of Sentrin-Specific Protease 8 in a Caspase-3 Fluorescence assay.; format: functional
T2 sequence (P42574 whole entry): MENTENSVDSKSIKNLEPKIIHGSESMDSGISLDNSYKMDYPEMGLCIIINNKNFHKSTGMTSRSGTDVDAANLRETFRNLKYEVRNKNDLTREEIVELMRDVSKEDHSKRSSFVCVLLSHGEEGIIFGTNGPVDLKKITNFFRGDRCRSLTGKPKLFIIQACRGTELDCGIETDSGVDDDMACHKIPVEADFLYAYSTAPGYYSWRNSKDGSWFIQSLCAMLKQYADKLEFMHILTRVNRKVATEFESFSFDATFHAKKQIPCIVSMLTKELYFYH

Coagulation factor XII = target: T3, Coagulation factor XII (Homo sapiens, UniProt P00748); format: functional;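 further: activated factor XIIa alpha cleaving a fluorogenic AMC peptide substrate; inhibitor potency from loss of enzyme activity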
T3 sequence (P00748 whole entry): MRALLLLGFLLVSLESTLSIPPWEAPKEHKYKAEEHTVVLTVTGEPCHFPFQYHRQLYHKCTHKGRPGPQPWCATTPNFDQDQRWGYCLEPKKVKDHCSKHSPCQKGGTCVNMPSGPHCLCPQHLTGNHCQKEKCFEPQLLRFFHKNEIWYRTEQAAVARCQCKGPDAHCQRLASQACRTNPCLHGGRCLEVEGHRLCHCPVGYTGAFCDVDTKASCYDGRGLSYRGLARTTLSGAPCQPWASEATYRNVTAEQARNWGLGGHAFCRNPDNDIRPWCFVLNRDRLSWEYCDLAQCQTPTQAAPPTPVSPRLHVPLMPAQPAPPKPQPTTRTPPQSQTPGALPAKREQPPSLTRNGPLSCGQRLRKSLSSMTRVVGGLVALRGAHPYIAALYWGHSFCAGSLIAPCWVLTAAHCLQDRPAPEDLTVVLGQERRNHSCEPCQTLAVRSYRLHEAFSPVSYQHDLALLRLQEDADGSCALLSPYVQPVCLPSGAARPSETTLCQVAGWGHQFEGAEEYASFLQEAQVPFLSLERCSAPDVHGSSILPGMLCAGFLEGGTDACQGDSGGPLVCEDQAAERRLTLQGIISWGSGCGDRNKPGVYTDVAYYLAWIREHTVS

[7] = target: T1, Sentrin-specific protease 8; format: functional; remark: listed apart in the source
Protein Wnt-3a = Protein Wnt-3a (Mus musculus, UniProt P27467); experiment: SAR analysis of small molecule antagonists of Gli-SUFU in a Wnt3a luminescent reporter assay.; format: functional
Protein Wnt-3a, sequence (P27467 whole entry): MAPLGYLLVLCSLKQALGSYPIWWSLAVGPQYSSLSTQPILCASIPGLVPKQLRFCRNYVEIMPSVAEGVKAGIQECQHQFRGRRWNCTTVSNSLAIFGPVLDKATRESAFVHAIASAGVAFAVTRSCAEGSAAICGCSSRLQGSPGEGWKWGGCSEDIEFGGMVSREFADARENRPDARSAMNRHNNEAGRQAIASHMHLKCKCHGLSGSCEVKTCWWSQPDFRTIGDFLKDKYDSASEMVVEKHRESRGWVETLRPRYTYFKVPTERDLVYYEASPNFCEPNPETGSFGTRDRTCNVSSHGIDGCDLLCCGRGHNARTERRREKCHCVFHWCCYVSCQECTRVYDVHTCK

[8] = inhibition of bursicon-driven LGR2 cAMP signaling – cell-based, HEK293, CRE-luciferase reporter, cherry pick, dose response (AID 743342); format: functional
[9] = target: T4, Botulinum neurotoxin type F (Clostridium botulinum, UniProt P30996); experiment: High-throughput multiplex microsphere dose response for inhibitors of toxin protease, specifically Botulinum neurotoxin light chain F protease, compounds from Cherry Pick 02.; format: functional; settings: read-out: EC50_MICROM
T4 sequence (P30996 1-436 limits assumed): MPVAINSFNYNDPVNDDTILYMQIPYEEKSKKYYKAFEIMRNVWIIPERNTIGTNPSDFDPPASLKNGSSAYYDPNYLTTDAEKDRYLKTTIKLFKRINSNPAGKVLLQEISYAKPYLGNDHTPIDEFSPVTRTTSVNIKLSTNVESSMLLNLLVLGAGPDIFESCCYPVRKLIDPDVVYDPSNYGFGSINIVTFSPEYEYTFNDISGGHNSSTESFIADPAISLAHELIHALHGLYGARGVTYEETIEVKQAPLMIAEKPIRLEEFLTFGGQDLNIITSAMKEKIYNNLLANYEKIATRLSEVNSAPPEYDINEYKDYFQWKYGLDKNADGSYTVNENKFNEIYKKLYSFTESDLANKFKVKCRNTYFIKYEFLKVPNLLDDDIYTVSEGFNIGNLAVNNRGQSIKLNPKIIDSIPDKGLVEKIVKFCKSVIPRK

[10] = target: T4, Botulinum neurotoxin type F; experiment: High-throughput multiplex microsphere dose response for inhibitors of toxin protease, specifically Botulinum neurotoxin light chain F protease, compounds from Cherry Pick 01.; format: functional; settings: read-out: EC50_MICROM
[11] = target: T5, Long-chain-fatty-acid--AMP ligase FadD28 (Mycobacterium tuberculosis, UniProt P9WQ59); experiment: Fluorescence polarization aasay to screen for inhibitors that compete for the binding of FadD28 to a bisubstrate Measured in Biochemical System Using Plate Reader - 2147-01_Inhibitor_Dose_CherryPick_Activity.; format: functional, Mycobacterium tuberculosis H37Rv
T5 sequence (P9WQ59 whole entry): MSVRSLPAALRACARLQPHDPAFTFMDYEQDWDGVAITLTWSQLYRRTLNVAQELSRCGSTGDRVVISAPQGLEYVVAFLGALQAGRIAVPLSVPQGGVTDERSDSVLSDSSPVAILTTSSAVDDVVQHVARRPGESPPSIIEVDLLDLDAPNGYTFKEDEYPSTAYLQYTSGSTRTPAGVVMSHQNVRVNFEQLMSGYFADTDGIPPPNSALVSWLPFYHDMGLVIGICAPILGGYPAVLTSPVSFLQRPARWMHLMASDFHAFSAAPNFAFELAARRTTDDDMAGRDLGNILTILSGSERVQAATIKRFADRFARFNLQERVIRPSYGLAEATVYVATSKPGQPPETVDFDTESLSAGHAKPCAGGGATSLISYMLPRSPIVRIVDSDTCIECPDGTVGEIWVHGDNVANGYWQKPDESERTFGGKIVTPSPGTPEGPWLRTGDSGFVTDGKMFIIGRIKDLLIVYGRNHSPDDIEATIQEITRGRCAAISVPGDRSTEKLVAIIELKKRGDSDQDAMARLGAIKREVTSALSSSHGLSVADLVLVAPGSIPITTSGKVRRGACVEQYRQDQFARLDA

cells = format: functional, cell-based
[12] = target: SWI/SNF-related matrix-associated actin-dependent regulator of chromatin subfamily A member 2 (Homo sapiens, UniProt P51531); experiment: Luminescence-based cell-based high throughput dose response assay to identify activators of the function of SWI/SNF related, matrix associated, actin dependent regulator of chromatin, subfamily a, member 2 (SMARCA2, BRM).; format: functional
SWI/SNF-related matrix-associated actin-dependent regulator of chromatin subfamily A member 2, sequence (P51531 whole entry): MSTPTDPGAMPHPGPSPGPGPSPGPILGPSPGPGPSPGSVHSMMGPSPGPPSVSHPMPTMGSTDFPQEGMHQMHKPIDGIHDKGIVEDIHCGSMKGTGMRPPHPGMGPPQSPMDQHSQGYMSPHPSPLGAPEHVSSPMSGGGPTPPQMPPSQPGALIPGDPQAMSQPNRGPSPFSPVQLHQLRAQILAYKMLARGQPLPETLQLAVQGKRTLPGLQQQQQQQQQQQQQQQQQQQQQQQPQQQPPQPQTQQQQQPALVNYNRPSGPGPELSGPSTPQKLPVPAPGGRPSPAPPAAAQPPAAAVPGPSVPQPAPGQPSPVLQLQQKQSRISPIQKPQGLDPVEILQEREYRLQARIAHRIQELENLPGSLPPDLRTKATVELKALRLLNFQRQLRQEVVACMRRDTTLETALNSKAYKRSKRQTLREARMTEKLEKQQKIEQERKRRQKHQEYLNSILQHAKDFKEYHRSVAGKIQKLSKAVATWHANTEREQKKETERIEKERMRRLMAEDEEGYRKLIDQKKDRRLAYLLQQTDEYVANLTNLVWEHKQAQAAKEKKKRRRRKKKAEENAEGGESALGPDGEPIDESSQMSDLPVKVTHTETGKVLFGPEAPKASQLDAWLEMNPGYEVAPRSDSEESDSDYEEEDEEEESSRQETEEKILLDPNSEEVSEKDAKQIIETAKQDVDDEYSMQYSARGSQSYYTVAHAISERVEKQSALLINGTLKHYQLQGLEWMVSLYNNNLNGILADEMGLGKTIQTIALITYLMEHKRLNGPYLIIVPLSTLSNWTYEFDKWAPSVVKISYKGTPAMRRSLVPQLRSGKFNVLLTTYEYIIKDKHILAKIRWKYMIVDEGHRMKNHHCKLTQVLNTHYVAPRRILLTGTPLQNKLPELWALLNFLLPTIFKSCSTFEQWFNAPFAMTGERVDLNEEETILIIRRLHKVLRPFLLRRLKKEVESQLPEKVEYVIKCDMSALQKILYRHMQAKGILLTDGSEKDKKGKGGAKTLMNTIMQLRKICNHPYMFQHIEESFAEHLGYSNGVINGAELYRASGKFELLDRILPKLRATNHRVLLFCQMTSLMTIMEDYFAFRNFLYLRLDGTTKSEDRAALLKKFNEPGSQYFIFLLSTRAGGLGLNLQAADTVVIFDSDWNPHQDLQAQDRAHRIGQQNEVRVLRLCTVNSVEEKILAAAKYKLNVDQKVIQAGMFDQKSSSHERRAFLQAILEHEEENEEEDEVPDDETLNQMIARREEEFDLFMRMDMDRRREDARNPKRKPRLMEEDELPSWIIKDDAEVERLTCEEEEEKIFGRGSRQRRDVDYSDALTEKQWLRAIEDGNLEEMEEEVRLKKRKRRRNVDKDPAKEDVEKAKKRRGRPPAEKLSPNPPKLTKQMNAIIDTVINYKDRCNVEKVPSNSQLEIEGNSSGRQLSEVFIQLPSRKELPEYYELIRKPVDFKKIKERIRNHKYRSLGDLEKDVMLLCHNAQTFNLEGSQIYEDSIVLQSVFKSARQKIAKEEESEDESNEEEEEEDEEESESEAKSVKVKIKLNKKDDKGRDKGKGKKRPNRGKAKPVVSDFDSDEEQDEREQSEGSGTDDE

HeLa = experiment: ATP-based viability loss in HeLa cells – cell-based, CellTiter-Glo luminescence, cherry-pick samples, cytotoxicity control for MITF activator project, dose response (AID 540259); format: functional; settings: Homo sapiens
[13] = target: T6, Nuclear receptor subfamily 0 group B member 1 (Homo sapiens, UniProt P51843); format: functional, cell-based;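 further: HEK293T cells transfected with SF-1 and DAX-1 plus StAR promoter luciferase reporter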
T6 sequence (P51843 whole entry): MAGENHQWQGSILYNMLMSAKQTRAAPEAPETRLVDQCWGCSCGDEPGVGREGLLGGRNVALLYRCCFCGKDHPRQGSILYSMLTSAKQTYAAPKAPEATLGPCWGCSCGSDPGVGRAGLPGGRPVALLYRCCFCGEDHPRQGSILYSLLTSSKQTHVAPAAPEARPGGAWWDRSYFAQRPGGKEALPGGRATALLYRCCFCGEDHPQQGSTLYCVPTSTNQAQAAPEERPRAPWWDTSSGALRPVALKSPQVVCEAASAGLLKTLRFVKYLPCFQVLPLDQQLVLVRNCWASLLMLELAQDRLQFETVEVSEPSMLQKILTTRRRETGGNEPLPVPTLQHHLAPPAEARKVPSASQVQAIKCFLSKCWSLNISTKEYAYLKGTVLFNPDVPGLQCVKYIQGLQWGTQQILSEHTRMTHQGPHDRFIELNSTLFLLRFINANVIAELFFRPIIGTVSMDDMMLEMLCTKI

[14] = Counterscreen for activators of the function of SWI/SNF related, matrix associated, actin dependent regulator of chromatin, subfamily a, member 2 (SMARCA2, BRM): Luminescence-based cell-based high throughput dose response assay to identify non-selective compounds using the VP16 reporter assay.; format: functional

With `CCN1CCN(Cc2ccc(NC(=O)c3cccc(-c4ccc5nc(NC(=O)C6CC6)sc5n4)c3)cc2C(F)(F)F)CC1` the AC50 [1] was 5.27 µM (active), the AC50 [2] was 2.18 µM (active) and the AC50 [3] was 5.08 µM (active). For the same compound, the AC50 [4] was 8.7 µM (active) and the AC50 [5] was 3.22 µM (active).
With `COc1ccc(N2C(=O)[C@@H]3[C@H](C2=O)[C@H]2c4ccccc4C=CN2[C@@H]3C(=O)Nc2ccccc2)cc1` the IC50 [6] was 3.72 µM (active), the IC50 (Caspase-3) was 12.4 µM (active) and the IC50 (Coagulation factor XII) was > 50 µM (inactive). The IC50 [7] was 16.7 µM (active).
For `CCN(CC)c1cc(NC(=O)c2ccccc2F)ncn1`, the IC50 (Protein Wnt-3a) was 0.172 µM (active).
For `C[C@H](CO)N1C[C@H](C)[C@H](CN(C)C(=O)Nc2ccccc2)OCCCC[C@H](C)Oc2ccc(NC(=O)C3CCCCC3)cc2C1=O`, the AC50 [3] was 39.5 µM (active) and the AC50 [8] was 3.87 µM (active).
For `O=C(Nc1cnc(O)nc1O)c1cc([N+](=O)[O-])cc([N+](=O)[O-])c1`, the EC50 [9] was 2.7 µM (active) and the EC50 [10] was 3.9 µM (active).
With `CCc1cccc2c(C(=O)CN3C(=O)NC4(CCCCCC4)C3=O)c[nH]c12` the AC50 [11] was 4.33 µM (active), the IC50 (cells) was > 67.6 µM (inactive) and the EC50 [12] was > 91.2 µM (inactive). For the same compound, the AC50 (HeLa) was 99.7 µM (active), the IC50 [13] was > 67.6 µM (inactive) and the EC50 [14] was > 91.2 µM (inactive).
